Reference: patent US7994141B2, “Compositions comprising compounds of natural origin for damaged skin” (Biospectrum, Inc., priority 2006, dated 2011)

Tests used:
Settings in all cases: individual compound of natural origin
[1] = Determination of antioxidant activity (DPPH method); format: biochemical
Method: DPPH (1,1-diphenyl-2-picrylhydrazyl) is a chromogenic radical and thus, can be used to directly confirm the radical scavenging activity of the samples. The samples were dissolved in 4 ml of distilled water or solvent (methanol) and then, mixed well with 1 ml of 100 μM DPPH. Subsequently, the samples were incubated at room temperature for 30 minutes. The absorbance of the remaining DPPH was measured at 517 nm. As a blank of the present experiment, distilled water or solvent was used, and as a control, an experimental group composed only of DPPH in distilled water or solvent without the sample was used. Further, vitamin C was used as a positive control.

[2] = test system: NF-kB luciferase activity; assay: Anti-inflammatory effect: inhibition test of NF-kB luciferase activity (TNF-alpha treated fibroblasts); format: cell-based, Human fibroblasts and mouse fibroblasts, NIH3T3; design: key: −: No effect; +: Weak effect; ++: Moderate effect; +++: Strong effect; ++++: Very strong effect
Method: The anti-inflammatory effect was determined by the inhibition test of NF-kB luciferase activity. Human fibroblasts and mouse fibroblasts, NIH3T3 were transfected with NF-kB reporter DNA using SuperFect to induce transformation. At 24 hrs after transformation, the samples were treated with TNF-alpha (10 ng/ml). After 16 hrs, the cells were collected, and luminescence measurements were made […] using a Luminometer (Berthold, Germany).

[3] = test system: Human keratinocytes; assay: Wound-healing effect: cell migration assay; format: cell-based; design: key: −: No effect; +: Weak effect; ++: Moderate effect; +++: Strong effect; ++++: Very strong effect
Method: The wound-healing effect was determined by a cell migration assay. Human keratinocytes were confluently cultured in keratinocyte-SFM media and then, treated with […] mitomycin C (Sigma Chemical) to inhibit cell growth for the measurement of cell migration. The confluent cell monolayer was scratched using a yellow pipette tip to create a cell-free region and then, the cell debris was washed with PBS. After the treatment, the samples were cultured in keratinocyte-SFM media for 48 hrs to observe the effect on cell migration (Cecile A et. al., Molecular Biology of the Cell, 2002; 13: 3845-3858).

[4] = Moisturizing effect: transepidermal water loss (Tewameter TM210); format: in vivo, human subjects; design: key: −: No effect; +: Weak effect; ++: Moderate effect; +++: Strong effect; ++++: Very strong effect
Method: The transepidermal water loss was measured using a Tewameter TM210 (Germany). The measurement was performed twice, before the treatment and at 2 weeks after the treatment, and the results were statistically compared. The measurement was performed in a temperature/humidity controlled room (no air flow, no light, at a temperature of 22° C. and relative humidity of 40%). The measurement was performed in the abdomen of thirty subjects.

For O=C1O[C@H]([C@@H](O)CO)C(O)=C1O [Ascorbic acid], the Antioxidant effect [1] was “+”, the Anti-inflammatory effect [2] was “+” and the Wound-healing effect [3] was “++”. For the same molecule, the Moisturizing effect [4] was “−”.

With O=c1cc(-c2ccccc2)oc2cc(O)c(O)c(O)c12 [Baicalein] the Antioxidant effect [1] was “++”, the Anti-inflammatory effect [2] was “++” and the Wound-healing effect [3] was “++”. For the same molecule, the Moisturizing effect [4] was “++”.

For O=C(O)/C=C/c1ccc(O)c(O)c1 [Caffeic acid], the Antioxidant effect [1] was “+”, the Anti-inflammatory effect [2] was “+” and the Wound-healing effect [3] was “+”. For the same molecule, the Moisturizing effect [4] was “+”.

For CCc1ccc(C)c2ccc(C)c-2c1 [Chamazulene], the Antioxidant effect [1] was “++”, the Anti-inflammatory effect [2] was “++” and the Wound-healing effect [3] was “++”. For the same molecule, the Moisturizing effect [4] was “++”.

For COC1=C(OC)C(=O)C(C/C=C(\C)CC/C=C(\C)CC/C=C(\C)CC/C=C(\C)CC/C=C(\C)CC/C=C(\C)CC/C=C(\C)CC/C=C(\C)CC/C=C(\C)CCC=C(C)C)=C(C)C1=O [Coenzyme Q10], the Antioxidant effect [1] was “+”, the Anti-inflammatory effect [2] was “−” and the Wound-healing effect [3] was “+”. For the same molecule, the Moisturizing effect [4] was “+”.

In the case of O=c1ccc2ccccc2o1 [Coumarin], the Antioxidant effect [1] is reported as “+”, the Anti-inflammatory effect [2] is reported as “++” and the Wound-healing effect [3] is reported as “+”. For the same molecule, the Moisturizing effect [4] was “−”.

For C[C@@H]1CC[C@@]2(OC1)O[C@H]1C[C@H]3[C@@H]4CC=C5C[C@@H](O)CC[C@]5(C)[C@H]4CC[C@]3(C)[C@H]1[C@@H]2C [Diosgenin], the Antioxidant effect [1] was “−”, the Anti-inflammatory effect [2] was “+” and the Wound-healing effect [3] was “++”. The Moisturizing effect [4] was “+”.

In the case of CCCCCCCC/C=C/CCCCCCCC(=O)O [Elaidic acid], the Antioxidant effect [1] is reported as “+”, the Anti-inflammatory effect [2] is reported as “+” and the Wound-healing effect [3] is reported as “+”. For the same molecule, the Moisturizing effect [4] was “−”.

With Cc1cc(O)c2c(c1)C(=O)c1cc(O)cc(O)c1C2=O [Emodin] the Antioxidant effect [1] was “++”, the Anti-inflammatory effect [2] was “++” and the Wound-healing effect [3] was “++”. The Moisturizing effect [4] was “++”.

In the case of CC1=C(O)C(=O)C(C)O1 (stereo not shown) [Furaneol], the Anti-inflammatory effect [2] is reported as “+”, the Wound-healing effect [3] is reported as “+” and the Moisturizing effect [4] is reported as “+”.

For O=C(O)c1cc(O)c(O)c(O)c1 [Garlic acid], the Antioxidant effect [1] was “+”, the Anti-inflammatory effect [2] was “+” and the Wound-healing effect [3] was “+”. The Moisturizing effect [4] was “−”.

With CC(C)=CCC/C(C)=C/CO [Geraniol] the Anti-inflammatory effect [2] was “++”, the Wound-healing effect [3] was “+” and the Moisturizing effect [4] was “−”.

In the case of CC(C)=CCC[C@](C)(O[C@@H]1O[C@H](CO[C@@H]2O[C@H](CO)[C@@H](O)[C@H](O)[C@H]2O)[C@@H](O)[C@H](O)[C@H]1O)[C@H]1CC[C@]2(C)[C@@H]1[C@H](O)C[C@@H]1[C@@]3(C)CC[C@H](O[C@@H]4O[C@H](CO)[C@@H](O)[C@H](O)[C@H]4O[C@@H]4O[C@H](CO)[C@@H](O)[C@H](O)[C@H]4O)C(C)(C)[C@@H]3CC[C@]12C [Ginsenoside Rb1], the Antioxidant effect [1] is reported as “−”, the Anti-inflammatory effect [2] is reported as “+” and the Wound-healing effect [3] is reported as “+”. For the same molecule, the Moisturizing effect [4] was “+”.

With CC1(C)[C@@H](O[C@H]2O[C@H](C(=O)O)[C@@H](O)[C@H](O)[C@H]2O[C@@H]2O[C@H](C(=O)O)[C@@H](O)[C@H](O)[C@H]2O)CC[C@]2(C)[C@H]3C(=O)C=C4[C@@H]5C[C@@](C)(C(=O)O)CC[C@]5(C)CC[C@@]4(C)[C@]3(C)CC[C@@H]12 [Glycyrrhizin] the Antioxidant effect [1] was “++”, the Anti-inflammatory effect [2] was “++” and the Wound-healing effect [3] was “++”. The Moisturizing effect [4] was “++”.

With C=CCc1ccc(O)c(-c2ccc(O)c(CC=C)c2)c1 [Honokiol] the Antioxidant effect [1] was “+”, the Anti-inflammatory effect [2] was “+” and the Wound-healing effect [3] was “++”. For the same molecule, the Moisturizing effect [4] was “−”.

For OCCc1ccc(O)c(O)c1 [Hydroxytyrosol], the Anti-inflammatory effect [2] was “+”, the Wound-healing effect [3] was “+” and the Moisturizing effect [4] was “+”.

With OCc1c[nH]c2ccccc12 [Indole-3-carbinol] the Antioxidant effect [1] was “+”, the Anti-inflammatory effect [2] was “+” and the Wound-healing effect [3] was “+”. For the same molecule, the Moisturizing effect [4] was “−”.

For CC/C=C\C/C=C\C/C=C\CCCCCCCC(=O)O [Linolenic acid], the Anti-inflammatory effect [2] was “++”, the Wound-healing effect [3] was “++” and the Moisturizing effect [4] was “++”.

For C[C@H]1[C@H](C)CC[C@]2(C(=O)O)CC[C@]3(C)C(=CC[C@@H]4[C@@]5(C)C[C@@H](O)[C@H](O)[C@@](C)(CO)[C@@H]5[C@H](O)C[C@]43C)[C@H]12 [Madecassic acid], the Anti-inflammatory effect [2] was “++”, the Wound-healing effect [3] was “++” and the Moisturizing effect [4] was “++”.

In the case of C=CCc1ccc(O)c(-c2cc(CC=C)ccc2O)c1 [Magnolol], the Antioxidant effect [1] is reported as “+”, the Anti-inflammatory effect [2] is reported as “+” and the Wound-healing effect [3] is reported as “+”. For the same molecule, the Moisturizing effect [4] was “−”.

With CCCCCCCC/C=C\CCCCCCCC(=O)O [Oleic acid] the Antioxidant effect [1] was “+”, the Anti-inflammatory effect [2] was “+” and the Wound-healing effect [3] was “+”. The Moisturizing effect [4] was “+”.

With O=P(O)(O)O[C@H]1[C@H](OP(=O)(O)O)[C@@H](OP(=O)(O)O)[C@H](OP(=O)(O)O)[C@@H](OP(=O)(O)O)[C@H]1OP(=O)(O)O [Phytic acid] the Antioxidant effect [1] was “+”, the Anti-inflammatory effect [2] was “+” and the Wound-healing effect [3] was “++”. The Moisturizing effect [4] was “−”.

In the case of Oc1cc(O)cc(/C=C/c2ccccc2)c1 [Pinosylvin], the Antioxidant effect [1] is reported as “+”, the Anti-inflammatory effect [2] is reported as “+” and the Wound-healing effect [3] is reported as “++”. For the same molecule, the Moisturizing effect [4] was “−”.

In the case of O=c1c(O)c(-c2ccc(O)c(O)c2)oc2cc(O)cc(O)c12 [Quercetin], the Antioxidant effect [1] is reported as “++”, the Anti-inflammatory effect [2] is reported as “++” and the Wound-healing effect [3] is reported as “++”. The Moisturizing effect [4] was “++”.

With CC1=C(/C=C/C(C)=C/C=C/C(C)=C/CO)C(C)(C)CCC1 [Retinol] the Antioxidant effect [1] was “+”, the Anti-inflammatory effect [2] was “+” and the Wound-healing effect [3] was “+”. The Moisturizing effect [4] was “−”.

For O=C(/C=C/c1ccc(O)c(O)c1)O[C@H](Cc1ccc(O)c(O)c1)C(=O)O [Rosmarinic acid], the Antioxidant effect [1] was “++”, the Anti-inflammatory effect [2] was “++” and the Wound-healing effect [3] was “++”. For the same molecule, the Moisturizing effect [4] was “++”.

In the case of C[C@@H]1O[C@@H](OC[C@H]2O[C@@H](Oc3c(-c4ccc(O)c(O)c4)oc4cc(O)cc(O)c4c3=O)[C@H](O)[C@@H](O)[C@@H]2O)[C@H](O)[C@H](O)[C@H]1O [Rutin], the Anti-inflammatory effect [2] is reported as “+”, the Wound-healing effect [3] is reported as “+” and the Moisturizing effect [4] is reported as “+”.

With Cc1c(C)c2c(c(C)c1O)CC[C@@](C)(CCC[C@H](C)CCC[C@H](C)CCCC(C)C)O2 [alpha-Tocopherol] the Antioxidant effect [1] was “+”, the Anti-inflammatory effect [2] was “+” and the Wound-healing effect [3] was “++”.

In the case of O=C(O)CCCCC1CCSS1 (stereo not drawn) [alpha-lipoic acid], the Antioxidant effect [1] is reported as “+”, the Anti-inflammatory effect [2] is reported as “+” and the Wound-healing effect [3] is reported as “++”. For the same molecule, the Moisturizing effect [4] was “−”.
